Measurements taken from US12533361B2, “Use of polaprezinc in preparing drug for treating castration-resistant prostate cancer” (Jiangnan University, priority 2021, dated 2026).

Tests used:
L-DTP (EPI) cells = assay: CCK8 survival of drug-resistant L-DTP (EPI) cells, single and combined drugs; type: cell-based; settings: drug-resistant L-DTP (EPI) cells produced by continuously adding EPI for 9 days, optimal concentration of Pola
Procedure: (§1) Furthermore, CCK8 is used and drugs are used in drug-resistant L-DTP cells in a single form and combined form separately.
(§2) After the cells adhered to walls, a series of Pola from high to low concentrations were prepared. A most optimal concentration of the Pola was found. […] Cl values of the L-DTP cells were calculated by Calcusyn software.

[1] = tested on: mouse model of spontaneous prostate cancer with overexpression of C-MYC (Hi-Myc); assay: Hi-Myc mouse model of prostate cancer, prostate weight and HE staining (Example 4); type: in vivo; settings: for Average prostate weight of mice: 30 days administration after relapse caused by drug resistance, gavage once every three days, Enza 10 mg/Kg, Pola 20 mg/Kg, combined 10 + 20 mg/Kg, NC group 100.1 mg; for average prostate weight: 10 mg/Kg gavage once every three days
Description: A mouse model of spontaneous prostate cancer with overexpression of C-MYC (Hi-Myc) was established. […] A part of the mice were sacrificed and their prostate cancers were photographed and weighed. […]. The remaining mice were continuously administered according to the above method for 30 days. […]. […] At this time, the mice were divided into different groups immediately to study effects of combined use of drugs.
(§3) The mice were correspondingly gavaged. […] The mice were sacrificed and their prostate cancers were photographed, weighed and subjected to immunohistochemistry.

L-DTP (Enza) cells = assay: CCK8 survival of drug-resistant L-DTP (Enza) cells, single and combined drugs; type: cell-based; settings: drug-resistant L-DTP (Enza) cells produced by continuously adding Enza for 9 days, optimal concentration of Pola
Procedure: as §1, §2

[2] = tested on: mouse model of spontaneous prostate with overexpression of C-MYC (Hi-Myc); assay: Hi-Myc mouse model of prostate cancer, prostate weight (Example 5); type: in vivo; settings: for Average prostate weight of mice: 30 days administration after relapse, gavage once every three days, Enza 30 mg/Kg, Pola 30 mg/Kg, combined Enza 10 mg/Kg + Pola 20 mg/Kg, NC group 105.4 mg
Description: A mouse model of spontaneous prostate with overexpression of C-MYC (Hi-Myc) was established. […] A part of the mice were sacrificed and their prostate cancers were photographed and weighed. […] The remaining mice were continuously administered according to the above method for 30 days. […] The mice were correspondingly gavaged. […] The mice were sacrificed and their prostate cancers were photographed, weighed and subjected to immunohistochemistry.

PRDX5 = assay: Immunohistochemistry of PRDX5 in prostate tissue sections (Example 4); type: in vivo, mouse; settings: 30 days administration after relapse, Enza 10 mg/Kg, Pola 20 mg/Kg, combined 10 + 20 mg/Kg, NC group 61.7
Description: as §3

AR = assay: Immunohistochemistry of AR in prostate tissue sections (Example 4); type: in vivo, mouse; settings: 30 days administration after relapse, Enza 10 mg/Kg, Pola 20 mg/Kg, combined 10 + 20 mg/Kg, NC group 94
Description: as §3

[3] = 10 mg/Kg gavage once every three days for 30 days

| Compound | inhibition rate (L-DTP (EPI) cells) | prostate weight compared with the NC group [1, 3] | Average prostate weight of mice [1] [mg] | average prostate weight ([1]; after 30 days of continuous administration, NC group 85.3 mg) [mg] | average prostate weight ([1]; after 60 days of continuous administration, relapse, NC group 95.6 mg) [mg] | inhibition rate (L-DTP (Enza) cells) | prostate weight compared with the NC group [2, 3] | Average prostate weight of mice [2] [mg] | Expression amount of PRDX5/% (PRDX5) [%] | Expression amount of AR/% (AR) [%] | effect on drug-resistant CRPC (prostate weight, in words) ([1]; 30 days administration after relapse, compared with single use / between single groups) |
| --- | --- | --- | --- | --- | --- | --- | --- | --- | --- | --- | --- |
| CC(C)(c1ccc(OCC(O)CO)cc1)c1ccc(OCC(O)CCl)cc1 (stereo not drawn) [EPI, EPI-001] | no obvious inhibitory effect |  |  |  |  |  |  |  |  |  |  |
| CNC(=O)c1ccc(N2C(=S)N(c3ccc(C#N)c(C(F)(F)F)c3)C(=O)C2(C)C)cc1F [Enza, enzalutamide] |  | reduced by half | 83.3 | 41.2 | 78.4 | no obvious inhibitory effect | reduced by half | 85.9 | 93.6 |  |  |
| NCCC(=O)[N-][C@@H](Cc1c[nH]cn1)C(=O)[O-].[Zn+2] [Pola, polaprezinc] | no obvious inhibition rate |  | 80.625 |  |  | no obvious inhibition rate |  | 81.2 | 74.2 | 70.4 | does not have a significant effect |
